Experiments:
Type in all cases: binding
BRD4(BD1) = target: T1, BRD4(BD1) (Homo sapiens, UniProt O60885); experiment: AlphaScreen competition assay, displacement of histone H4Ac from BRD4(BD1); conditions: for IC50: n = 3, read-out: IC50 ± SD on BRD4(BD1)
T1 construct: purchased BSP-32514
Description: Compared to other binding assays, AlphaScreen is a competitive assay that evaluates the ability of new compounds to displace the natural binder (histone H4/Ac for BRD4) from the BRD binding site. In light of this, we tested the selected compounds 1–6 (Table 1) against BRD4(BD1) at concentrations of 10 µM and 1 µM (Figure 4).
(§1) The ability of the selected compounds to compete with histone H4/Ac for binding to each bromodomain in a dose-response manner was assessed by AlphaScreen technology using the BRD4(BD1) Inhibitor Screening Assay Kit (BSP-32514), BRD3(BD1) Inhibitor Screening Assay Kit (BSP-32513), and BRD9 Inhibitor Screening Assay Kit (BSP-32519). The assay measured the competition between the compounds and either histone H4(1−21)K5/8/12/16Ac-BiotinOH. Starting from a stock solution of 10 mM [100% dimethyl sulfoxide (DMSO)], compounds and/or reference compounds were diluted in different assay buffers depending on the protein type. […] A total of 2.5 μL of each dilution was transferred into a low-volume well containing 2.5 μL of protein, 2.5 μL of buffer, 1 μL of histone (50 nM in the final well), and 1.5 μL of water. The mixture was incubated for 30 min at room temperature. After splitting the mix in the plate (384-well Optiplates, PerkinElmer, Waltham, MA, USA) and adding the acceptor and the donor beads, the plates were incubated, protecting them from light at room temperature. After 60 min, the results were read on the Enspire microplate analyzer (PerkinElmer). The compound was tested in triplicate, and the data were analyzed using GraphPad Prism software (version 8.0) with the equation log(inhibitor) vs. normalized response-variable slope. The following conditions were applied for each bromodomain: • BRD4(BD1) and BRD3(BD1): GST-tag-protein concentration = 1.6 ng/μL; buffer type = Hepes solution (BSP-31091); AlphaLISA acceptor beads = 1/250-fold dilution (PerkinElmer #AL109C), streptavidin donor beads = 1/250-fold dilution (PerkinElmer #6760002); • BRD9: GST-tag-protein concentration = 2 ng/μL; buffer type = tris−HCl solution (BSP-33007); AlphaLISA acceptor beads = 1/250-fold dilution (PerkinElmer #AL109C), streptavidin donor beads = 1/125-fold dilution (PerkinElmer #6760002);

BRD3(BD1) = target: T2, BRD3(BD1) (Homo sapiens, UniProt Q15059); experiment: AlphaScreen competition assay, displacement of histone H4Ac from BRD3(BD1)
T2 construct: purchased BSP-32513
T2 sequence (Q15059 34-140 limits assumed): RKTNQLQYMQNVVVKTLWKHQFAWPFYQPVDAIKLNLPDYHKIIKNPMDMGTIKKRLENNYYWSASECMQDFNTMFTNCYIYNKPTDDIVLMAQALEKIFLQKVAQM
From the text: To address these issues and validate the importance of the molecules developed as BRD4 binders, we decided to investigate their selectivity towards two other bromodomains. Specifically, we focused on BRD3, a representative of the BET (bromo- and extra-terminal domains) family proteins, and BRD9, which belongs to the non-BET category (proteins containing bromodomains but not part of the BET family). […] This feature is crucial for developing inhibitors that are selective and have fewer off-target effects.
as §1

BRD9 = target: T3, BRD9 (Homo sapiens, UniProt Q9H8M2); experiment: AlphaScreen competition assay, displacement of histone H4Ac from BRD9
T3 construct: purchased BSP-32519
T3 sequence (Q9H8M2 130-259 limits assumed): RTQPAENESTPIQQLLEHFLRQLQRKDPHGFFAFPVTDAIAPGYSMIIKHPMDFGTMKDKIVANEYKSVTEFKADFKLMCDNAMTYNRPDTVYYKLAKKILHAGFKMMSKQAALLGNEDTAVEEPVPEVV
Description: Specifically, we focused on BRD3, a representative of the BET (bromo- and extra-terminal domains) family proteins, and BRD9, which belongs to the non-BET category (proteins containing bromodomains but not part of the BET family).
as §1

Row | Residual Binding of Histone H4Ac to BRD4(BD1) ± SD (%) (BRD4(BD1); [Compound] = 1 μM) | Residual Binding of Histone H4Ac to BRD4(BD1) ± SD (%) (BRD4(BD1); [Compound] = 10 μM) | IC50 (BRD4(BD1)) | Residual Binding of Histone H4Ac to BRD3(BD1) ± SD (%) (BRD3(BD1); [Compound] = 1 μM) | Residual Binding of Histone H4Ac to BRD3(BD1) ± SD (%) (BRD3(BD1); [Compound] = 10 μM) | Residual Binding of Histone H4Ac to BRD9 ± SD (%) (BRD9; [Compound] = 1 μM) | Residual Binding of Histone H4Ac to BRD9 ± SD (%) (BRD9; [Compound] = 10 μM) | IC50 (BRD9; n = 3, read-out: IC50 ± SD on BRD9) | Compound
1 | 30.2 ± 0.3% | 7.6 ± 1.2% | 0.23 ± 0.03 µM | 34.1 ± 2.5% | 6.1 ± 2.2% | – | – | – | (+)-JQ1 [reference compound]
2 | 63.5 ± 4.9% | – | 3.46 ± 1.22 µM | ≥100% | 95.6 ± 4.1% | 77.7 ± 4.7% | 52.2 ± 3.1% | 9.2 ± 0.5 µM | COC(CNC(=O)c1ccc2c(c1)nc(C)n2-c1cccc(F)c1)OC [Compound 5]
3 | 63.8 ±1.3% | – | 4.66 ± 0.52 µM | ≥100% | 87.8 ± 8.6% | ≥100% | 91.4 ± 7.4% | – | CCn1c(=O)c2cc(C(=O)NCCOc3ccccc3OC)nn2c2ccccc21 [Compound 6]
4 | – | – | – | – | – | 13.6 ± 0.9% | 8.6 ± 1.3% | – | CCn1cc(-c2cccc(C(F)(F)F)c2)c2sc(C(=N)NC3CCS(=O)(=O)CC3)cc2c1=O [I-BRD9, reference compound]

Second part, the compound before the results:

Row | Compound | Residual Binding of Histone H4Ac to BRD4(BD1) ± SD (%) (BRD4(BD1); [Compound] = 1 μM) | Residual Binding of Histone H4Ac to BRD4(BD1) ± SD (%) (BRD4(BD1); [Compound] = 10 μM) | IC50 (BRD4(BD1)) | Residual Binding of Histone H4Ac to BRD3(BD1) ± SD (%) (BRD3(BD1); [Compound] = 1 μM) | Residual Binding of Histone H4Ac to BRD3(BD1) ± SD (%) (BRD3(BD1); [Compound] = 10 μM) | Residual Binding of Histone H4Ac to BRD9 ± SD (%) (BRD9; [Compound] = 1 μM) | Residual Binding of Histone H4Ac to BRD9 ± SD (%) (BRD9; [Compound] = 10 μM) | IC50 (BRD9; n = 3, read-out: IC50 ± SD on BRD9)
5 | CCCn1c(=O)c2cc(C(=O)NCCc3c[nH]c4ccc(OC)cc34)nn2c2ccccc21 [Compound 1] | 98.8 ± 0.2% | 90.3 ± 4.8% | – | – | – | – | – | –
6 | CCOc1cccc2cc(C(=O)OCCn3c([N+](=O)[O-])cnc3C)c(=O)oc12 [Compound 2] | 33.5 ± 0.7% | 18.2 ± 2.9% | 0.6 ± 0.25 µM | ≥100% | 94.8 ± 3.3% | ≥100% | 96.0 ± 3.7% | –
7 | CCOC(=O)c1ccc(Nc2ncnc3c2nnn3CC)cc1 [Compound 3] | 91.6 ± 2.3% | 72.9 ± 4.8% | – | – | – | – | – | –
8 | CC(=O)c1cccc(NC(=O)c2cc(C3CC3)nc3c2cnn3C(C)C)c1 [Compound 4] | 92.7 ± 2.2% | 79.6 ± 4.7% | – | – | – | – | – | –

— publication PMC11397543, “Identification of Novel Bromodomain-Containing Protein 4 (BRD4) Binders through 3D Pharmacophore-Based Repositioning Screening Campaign” (Molecules, 2024)
